{"source": "patent US20130190394A1", "about": "“Applications Of Arctigenin In Formulating Drugs For Preventing Or Treating Diseases Related To Red Blood Cell Reduction” (priority 2010, published 2013)", "key": {"NOD mouse": {"system": "NOD mouse", "experiment": "Effects of Arctigenin on white blood cell and platelet of NOD mouse", "format": "in vivo, NOD/Ltj mice", "conditions": "for White Blood Cells / platelets: NOD/Ltj mice, n=13", "from_the_text": "Non-obese diabetic or NOD mice is a large mouse strain, including NOD/Scid, NOD/Ltj mice and the like. Yi Feng (Yi Feng, et al., “In vitro Expansion of Cord Blood Megakaryocyte Progenitor”, ACTA Academiae Medicinae Sinicae, Vol. 27, NO. 2, pp 199-204) directly expanded megakaryocyte progenitor from cord blood CD34+ cells by using thrombopoietin (TPO), interleukin-11 (IL-11) and heparin in combination. Intravenous infusion of the megakaryocytes expanded for 7 days (at a concentration of 5×10^6) into NOD/SCID mice received pre-treatment of radiation could accelerate the recovery of platelet and white blood cell account and improved the survival of the mice.\n1.1 Animals: 52 NOD/Ltj mice (purchased from Vital River Laboratory Animal Technology Co., Ltd., Beijing; Laboratory Animal NO: SCXK (BJ) 2006-2009), female, Age: 5 weeks, Body weight: 16-20 g.\nAfter one week of adaptive feeding, healthy NOD mice aged of 5 weeks were divided randomly into 4 groups: • I. Model Control Group: 13 animals; • II. Positive Control Group: 13 animals receiving gavage of interleukin at dose of 10.0 mg/kg every day; • III. Low-dose Arctigenin Group: 13 animals receiving gavage of […] at dose of 30 mg/kg every day; • IV. High-dose Arctigenin Group: 13 animals receiving gavage of […] at dose of 60 mg/kg every day.\nThe administration was given consecutively to each group once per day, and stopped after 15 days. The animals were then anaesthetized (3% pentobarbital sodium via intraperitoneal injection at 0.1˜0.15 ml/animal) and 1 ml blood was taken via abdominal vena cava for blood routine examination."}, "[1]": {"system": "mice received ^60Co radiation at 4Gy", "experiment": "Effects of Arctigenin on blood cell counts of mice under 60Co radiation", "format": "in vivo, Kunming mice", "from_the_text": "1.1 Animals: Kunming mice (purchased from National Institute for the Control of Pharmaceutical and Biological Products, China; Laboratory Animal NO: SCXK II-00-0010; female/male ratio at 1:1; Age: 7 weeks; […] The rest mice were included in the experiment. The mice fulfilled the experimental requirements after radiation were divided randomly into the following groups of: model group, group of burdock extract and Arctigenin group (each group: n=10; F/M=1:1). Each group was subjected to treatment or administration as follows: • 1. Normal Group (Group N): peritoneal injection of 0.9% physiological saline at a volume of 10 ml/kg; • 2. Model Group (Group M): peritoneal injection of 0.9% physiological saline at a dose of […]; • 3. Group of burdock Extract (Group E): peritoneal injection of water […] of Arctium lappa at a dose of 3.5 ml/kg/d; • 4. Arctigenin Group (Group A): peritoneal injection of 10 mg/kg/d Arctigenin at a volume of 10 ml/kg. Said burdock extract was prepared by: 1) placing burdock in a pot, adding water till the plant was immerged; 2) soaking burdock for 30 min for promoting the extraction of the effective components; 3) rapidly heating till boiling, fully boiling for 1-3 min, further heating for 20-30 min for concentration, and filtrating through sterile gauzes into a beaker; and 4) mixing the first dose with re-extracted agents uniformly after the first extraction for balancing their effects. 200 ml water extracts were prepared from 1 kg burdock. The administration was given to each group once per day for 10 days in total. During the experimental process, the animals were observed everyday for their diets, survivals and behaviors and weighted every day. At the end of the experiment, the animals were anaesthetized and anatomize to take blood from abdominal vena cava for blood routine examination, including total white blood cell count and total platelet count."}, "[2]": {"system": "Tumor-bearing mice (murine cancer cell line s180)", "experiment": "Effects of Arctigenin on myelosuppression caused by chemotherapy in tumor-bearing mice (blood routine examination)", "format": "in vivo, Kunming mice", "conditions": "for Neutrophil / White Blood Cells / platelet: s180 tumor-bearing mice, 10 days once per day, Docetaxel 75 mg/m^2/d, Imatinib Mesylate 222.2 mg/m^2/d tail vein, Arctigenin 10 mg/m^2/d peritoneal, n=10", "procedure": "(§1) The cell suspension was injected into abdominal cavity of mice under sterile conditions. The mice were sacrificed by cervical dislocation at 7 days after inoculation when the abdominal cavity expanded obviously, and then soaked in a flask with 75% ethanol for 2-3 min. The sterilized mice were placed on a superclean bench with abdomen exposed. The ascites were taken with sterile injectors and stored in sterile vials for further use. The ascites was counted by Trypan blue staining, and then diluted to 2.0×10^7 cell/ml with physiological saline. The animals were inoculated with the dilutions in the right armpit at 0.2 ml/animal.\nThe inoculated animals were divided randomly into following six groups with 10 animals each group (F:M=1:1): • 1. Model Group (Group M): receiving peritoneal injection of 0.9% physiological saline; • 2. Docetaxel Group (Group D): receiving 75 mg/m^2/d Docetaxel; • 3. […] Arctigenin Group (Group A): receiving 10 mg/m^2/d Arctigenin; • 5. Docetaxel plus Arctigenin Group (Group D+A): receiving 75 mg/m^2/d Docetaxel plus 10 mg/m^2/d Arctigenin; • 6.\n(§2) Docetaxel and Imatinib Mesylate were administered via tail vein injection at dosages of 20 ml/kg. Arctigenin was administered via peritoneal injection at a dosage of 10 ml/kg. The administration was given to each group once per day for 10 days in total. During the experimental process, the animals were observed everyday for their diets, survivals and behaviors and weighted every day. At the end of the experiment, the animals were anaesthetized and anatomize to draw blood from abdominal vena cava for blood routine examination, including total white blood cell count, total platelet count and neutrophil count."}, "[3]": {"experiment": "Body weight and tolerability of tumor-bearing mice during administration", "format": "in vivo, Kunming mice", "conditions": "for Body weight before administration: mouse, in vivo", "procedure": "as §1, with “The murine cancer cell line s180 was cultured in 1640 culture medium at 37° C., 5% CO2, sub-cultured every two days on average till logarithmic growth phase and then prepared into single cell suspension at 3.0×10^7 cell/ml with physiological saline. The cell” for “The cell”\nThe inoculated animals were divided randomly into following six groups with 10 animals each group (F:M=1:1): • 1. Model Group (Group M): receiving peritoneal injection of 0.9% physiological saline; • 2. Docetaxel Group (Group D): receiving 75 mg/m^2/d Docetaxel; • 3. Imatinib Mesylate Group (Group IM): receiving 222.2 mg/m^2/d Imatinib Mesylate; • 4. Arctigenin Group (Group A): receiving 10 mg/m^2/d Arctigenin; • 5. Docetaxel plus Arctigenin Group (Group D+A): receiving 75 mg/m^2/d Docetaxel plus 10 mg/m^2/d Arctigenin; • 6. Imatinib Mesylate plus Arctigenin Group (Group IM+A): receiving 222.2 mg/m^2/d Imatinib Mesylate plus 10 mg/m^2/d Arctigenin.\nas §2"}, "[4]": {"conditions": "high-dose, gavage 60 mg/kg every day for 15 days"}, "[5]": {"conditions": "low-dose, gavage 30 mg/kg every day for 15 days"}, "[6]": {"conditions": "mice after 60Co 4 Gy whole body radiation, peritoneal injection once per day for 10 days, Arctigenin 10 mg/kg/d, burdock water extract 3.5 ml/kg/d, n=10"}}, "note": "Where a name gives a salt, the structure may show the parent alone."}
{"compound": "COc1cc(C[C@H]2C(=O)OC[C@@H]2Cc2ccc(OC)c(OC)c2)ccc1O", "note": "[Arctigenin]", "values": [{"measurement": "White blood cell counts and platelet counts compared with model group", "setting": "NOD mouse; NOD mice, low-dose and high-dose groups, in words", "value": "significantly higher"}, {"measurement": "White Blood Cells", "setting": "NOD mouse; [4]", "value": "4.225 ± 0.51^##$ 10^9/L"}, {"measurement": "platelets", "setting": "NOD mouse; [4]", "value": "780.2 ± 46.5^##$$ 10^9/L"}, {"measurement": "White Blood Cells", "setting": "NOD mouse; [5]", "value": "3.242 ± 0.45^#$ 10^9/L"}, {"measurement": "platelets", "setting": "NOD mouse; [5]", "value": "730.5 ± 34.6^##$ 10^9/L"}, {"measurement": "Total white blood cell count and platelet count in comparison with the model group", "setting": "[1]; 60Co 4 Gy radiated mice, P<0.01 or P<0.05, in words", "value": "increase in both total white blood cell count and the platelet count"}, {"measurement": "White Blood Cells", "setting": "[1]; [6]", "value": "4.225 ± 0.51^##$ 10^9/L"}, {"measurement": "platelet", "setting": "[1]; [6]", "value": "596.2 ± 72.5^#$ 10^9/L"}, {"measurement": "Neutrophil", "setting": "[2]", "value": "1.316 ± 0.15^#**^$$ 10^9/L"}, {"measurement": "White Blood Cells", "setting": "[2]", "value": "3.530 ± 0.31^##**^$$ 10^9/L"}, {"measurement": "platelet", "setting": "[2]", "value": "687.4 ± 37.3^## 10^9/L"}, {"measurement": "Total white blood cell count and total neutrophil count compared with the Docetaxel group and the imatinib mesylate group", "setting": "[2]; tumor-bearing mice, P<0.01, in words", "value": "significant increases in total white blood cell count and total neutrophil count"}, {"measurement": "Total white blood cell count and total neutrophil count compared with the model group", "setting": "[2]; tumor-bearing mice, P<0.01 or P<0.05, in words", "value": "increase in both the total white blood cell count and the total neutrophil count"}, {"measurement": "Body weight before administration", "setting": "[3]", "value": "21.1 ± 3.0", "unit": "g"}, {"measurement": "Toxic or side effects", "setting": "[3]; tumor-bearing mice, 10 days administration, in words", "value": "does not have significant toxic or side effects"}]}
{"compound": "CC(=O)O[C@@]12CO[C@@H]1C[C@H](O)[C@@]1(C)C(=O)[C@H](O)C3=C(C)[C@@H](OC(=O)[C@H](O)[C@@H](NC(=O)OC(C)(C)C)c4ccccc4)C[C@@](O)([C@@H](OC(=O)c4ccccc4)[C@H]21)C3(C)C", "note": "[Group D, Docetaxel]", "values": [{"measurement": "Neutrophil", "setting": "[2]", "value": "0.670 ± 0.12 10^9/L"}, {"measurement": "White Blood Cells", "setting": "[2]", "value": "2.773 ± 0.46 10^9/L"}, {"measurement": "platelet", "setting": "[2]", "value": "450.6 ± 30.5 10^9/L"}, {"measurement": "Neutrophil numbers in comparison with Group M", "setting": "[2]; tumor-bearing mice, in words", "value": "decreased significantly"}, {"measurement": "Body weight before administration", "setting": "[3]", "value": "21.2 ± 1.8", "unit": "g"}]}
{"compound": "Cc1ccc(NC(=O)c2ccc(CN3CCN(C)CC3)cc2)cc1Nc1nccc(-c2cccnc2)n1", "note": "[Group IM, Imatinib Mesylate]", "values": [{"measurement": "Neutrophil", "setting": "[2]", "value": "0.695 ± 0.09 10^9/L"}, {"measurement": "White Blood Cells", "setting": "[2]", "value": "2.703 ± 0.37 10^9/L"}, {"measurement": "platelet", "setting": "[2]", "value": "432.9 ± 34.8 10^9/L"}, {"measurement": "Neutrophil numbers in comparison with Group M", "setting": "[2]; tumor-bearing mice, in words", "value": "decreased significantly"}, {"measurement": "Body weight before administration", "setting": "[3]", "value": "21.3 ± 2.3", "unit": "g"}]}
